How the values were obtained:
porcine pepsin A = biological target: T1, porcine pepsin A (Sus scrofa, UniProt P00791); test: co-crystallization of inhibitors with pepsin; assay type: binding; settings: crystal structures of porcine pepsin complexes
T1 construct: purchased Worthington Biochemical Corporation
Description: Lyophilized porcine pepsin A (Worthington Biochemical Corporation) was dissolved in water at 200 mg/mL. All ligand stock solutions, except for saquinavir mesylate, were prepared as saturated solutions in DMSO in order to dissolve the maximal amount of ligand. The solutions were centrifuged and an appropriate volume of the supernatant was added to the pepsin solution so that final mixture contained 1.6% of the ligand stock by volume. The mixtures were incubated at room temperature for 1 h, centrifuged for 10 min at 31,000 rcf, and the supernatant was used for crystallization experiments. […] In order to maximize the solubility of saquinavir in the crystallization solution, we tested solutions from the CryoSol screen (Molecular Dimensions) (PMID 28626721). Mixture SM2 consisting of 37.5% v/v dioxane, 25% v/v DMSO, 12.5% v/v ethylene glycol, 12.5% v/v 1,2-propanediol, and 12.5% v/v glycerol allowed us to increase the amount of ligand solution in the co-crystallization mixture without damaging the protein. The saturated solution of saquinavir in SM2 was treated in the same manner as solutions of other ligands except that its amount in the solution with pepsin was increased to 5% by volume.
The initial crystallization condition was identified by screening 200 mg/mL ligand-free porcine pepsin against the Salt RX screen (Hampton Research). Small bipyramid-shaped crystals were obtained in 3.5 M ammonium chloride and 0.1 M sodium acetate trihydrate pH 4.6 after 1 week of incubation at room temperature. […] Diffraction quality crystals formed after 2-7 days from hanging drops containing 2 μL of pepsin at concentrations of 180-210 mg/mL and 1 μL of a microseed solution serially diluted 10-100× above a well solution containing 3 M-4 M ammonium chloride and 0.1 M sodium acetate trihydrate pH 4.6. The crystals were shaped as triangular bi-pyramids with dimensions approximately 200×100×100 μm. Crystals were cryoprotected by soaking them in 30% w/v glucose, 5 M ammonium chloride and 0.1 M sodium acetate trihydrate pH 4.6 and then plunging them in liquid nitrogen.
The complex with saquinavir was crystallized in the same manner except that we used 0.1 M acetic acid instead of 0.1 M sodium acetate trihydrate pH 4.6 because this change allowed us to grow large crystals without the need for a microseeding solution. Cryoprotection was accomplished using 30% w/v glucose, 3 M ammonium chloride and 0.1 M acetic acid, followed by plunging in liquid nitrogen.
Pepsin·APV: A 1.9 Å diffraction data set was collected at the Life Sciences Collaborative Access Team beamline (LS-CAT) 21-ID-F at the Advanced Photon Source (APS) equipped with a MAR 300 CCD detector using a 50×50 μm beam at a wavelength of 0.97872 Å. […]

[1] = known clinical profile; cited from earlier work

T1 sequence (P00791 60-385): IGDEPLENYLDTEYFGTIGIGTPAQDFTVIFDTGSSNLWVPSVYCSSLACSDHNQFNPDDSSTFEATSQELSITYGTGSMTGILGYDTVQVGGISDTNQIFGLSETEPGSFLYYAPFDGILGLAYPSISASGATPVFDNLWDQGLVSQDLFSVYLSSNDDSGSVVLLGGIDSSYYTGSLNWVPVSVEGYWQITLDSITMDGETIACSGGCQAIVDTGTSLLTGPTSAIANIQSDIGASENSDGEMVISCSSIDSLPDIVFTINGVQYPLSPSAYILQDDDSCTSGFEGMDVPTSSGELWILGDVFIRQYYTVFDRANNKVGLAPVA

SMILES | binding at the active site of pepsin by co-crystallization (porcine pepsin A) | side effects / tolerability [1]
CC(C)c1nc(CN(C)C(=O)N[C@H](C(=O)N[C@@H](Cc2ccccc2)C[C@H](O)[C@H](Cc2ccccc2)NC(=O)OCc2cncs2)C(C)C)cs1 [ritonavir, 1,3-thiazol-5-ylmethyl N-[(2S,3 S,5S)-3-hydroxy-5-[[(2S)-3-methyl-2-[[methyl-[(2-propan-2-yl-1,3-thiazol-4-yl)methyl]carbamoyl]amino]butanoyl]amino]-1,6-diphenylhexan-2-yl]carbamate] | bind at the active site of pepsin | minimal side effects such as diarrhea, nausea and vomiting
CC(C)CN(C[C@@H](O)[C@H](Cc1ccccc1)NC(=O)O[C@H]1CCOC1)S(=O)(=O)c1ccc(N)cc1 [amprenavir, [(3S)-oxolan-3-yl] N-[(2S,3R)-4-[(4-aminophenyl)sulfonyl-(2-methylpropyl)amino]-3-hydroxy-1-phenylbutan-2-yl]carbamate] | bind in the pepsin active site | minimal side effects such as diarrhea, nausea and vomiting
CC(C)(C)NC(=O)[C@@H]1C[C@@H]2CCCC[C@@H]2CN1C[C@@H](O)[C@H](Cc1ccccc1)NC(=O)[C@H](CC(N)=O)NC(=O)c1ccc2ccccc2n1 [saquinavir, (2S)—N-[(2S,3R)-4-[(3 S,4aS,8aS)-3-(tert-butylcarbamoyl)-3,4,4a,5,6,7,8,8a-octahydro-1H-isoquinolin-2-yl]-3-hydroxy-1-phenylbutan-2-yl]-2-(quinoline-2-carbonylamino)butanediamide] | bind at the active site of pepsin | can cause QT prolongation, heart block, high blood lipids, and liver problems
CC(C)CN(C[C@@H](O)[C@H](Cc1ccccc1)NC(=O)O[C@H]1CO[C@H]2OCC[C@H]21)S(=O)(=O)c1ccc(N)cc1 [darunavir, [(3a S,4R,6aR)-2,3,3a,4,5,6a-hexahydrofuro[2,3-b]furan-4-yl] N-[(2S,3R)-4-[(4-aminophenyl)sulfonyl-(2-methylpropyl)amino]-3-hydroxy-1-phenylbutan-2-yl]carbamate] | bind at the active site of pepsin | –

Reference: patent US12678453B2, “Aerosolized formulations of HIV protease inhibitors for the treatment of airway reflux” (The Medical College of Wisconsin, Inc., priority 2020, dated 2026)
